# Reference: patent publication US20210386754A1, “COMPOSITIONS AND METHODS FOR TREATING ATHEROSCLEROTIC VASCULAR DISEASE” (AUGUSTA UNIVERSITY RESEARCH INSTITUTE, INC., priority 2020, published 2021)
# Entries after “also recorded” stand apart in the source; their conditions may differ.
# Key:
# RAW 264.7 macrophages [1] = experiment: Clathrin-mediated endocytosis of FITC-transferrin; format: cell-based; conditions: EIPA 25 μM, 1 hr; FITC-transferrin 1 μg/ml
# Description: Clathrin- and caveolin-mediated endocytosis: Receptor-mediated uptake of FITC-transferrin (1 μg/mL; clathrin-mediated endocytosis) and Alexa Fluor 488-albumin ([…]; caveolin-mediated endocytosis) was investigated in RAW 264.7 macrophages following their incubation with ±EIPA (25 μM; 1 hour pre-incubation). Fluorescence intensity was measured using the FL1 channel for FITC and Alexa Fluor 488 (Ex: 488 nm, Em: 530 nm).
# RAW 264.7 macrophages [2] = experiment: Cell viability assay, LIVE/DEAD Fixable Far Red dye; format: cell-based; conditions: EIPA 25 μM, 1 hr, then PMA 4 hours
# Description: Cell viability assay: RAW 264.7 macrophages were plated in 24 well plates at a density of 1×10^6 cells/mL. Twenty four hours later, macrophages were pre-incubated with vehicle or EIPA (25 μM, 1 hr) and treated with PMA (1 μM, 4 hrs). Cells were fixed in 2% PFA, resuspended in FACS buffer (2% BSA and 0.01% sodium azide in PBS), and stained with the LIVE/DEAD™ Fixable Far Red dye to identify live cells. Fluorescence intensity was measured using the FL4 channel (Ex: 650 nm, Em: 660 nm).
# [3] = system: hypercholesterolemic mice (PCSK9-AAV-mediated LDLR knockdown); experiment: Atherosclerosis model: PCSK9-AAV, partial LCA ligation, Western diet; format: in vivo, mouse; conditions: for inhibition of atherosclerotic lesion area (ORO positive area, LCA): continuous infusion via subcutaneous osmotic pump
# Excerpt: Mice were given a single injection of AAV-PCSK9 (1×1011 VG) and fed a Western diet (Envigo, TD.88137, Indianapolis, Ind.). One week after AAV-PCSK9 injection, mice underwent partial carotid ligation surgery as previously described (67) and Western diet was continued for another 3 weeks. In separate experiments, mice were given a single injection of AAV-PCSK9 (1×1011 VG) and fed a Western diet for 16 weeks. Mice were anesthetized (isoflurane inhalation, 3%) and exsanguinated. Blood was collected from left ventricle using a heparinized syringe fitted with a 21 G needle. Aortic arch and carotid arteries were collected, and gross macroscopic images were acquired. For molecular histology studies, carotids and aortic arch were fixed in 4% paraformaldehyde (PFA), embedded in OCT compound and stored at −80° C. until use.
# ORO staining: Atherosclerosis development in carotid arteries and whole aorta were studied initially by gross imaging followed by Oil Red O (ORO) staining and plaque quantification. Briefly, the entire aorta was isolated, cleaned of peri-adventitial fat, fixed and imaged on the surface of black silicone-coated dissection dishes. Left carotid arteries were embedded in OCT and 10 μm thick cross-sections were prepared. The arteries were divided into 3 regions based on their distance from the aortic arch: proximal (0-400 μm), middle (2,000-2,400 μm) and distal (4,000-4,400 μm). Frozen sections and whole aortas were then stained with ORO solution (2%) and images were taken using light microscope equipped with a camera under 20× and 1.6× objective lens. The total area, lumen area and ORO positive area were measured for six sections/anatomical position per mouse using Image J software. The ratio of ORO positive area to arterial area is represented as plaque area. Plasma total cholesterol concentrations were determined by the Amplex™ Red Cholesterol Assay Kit (ThermoFisher, Rockford, Ill.). Plasma lipid profiles were obtained by column fractionation and measurements of fraction cholesterol content.
# Hematoxylin and Eosin (H&E) or Masson's trichrome staining: Frozen sections were also used for Hematoxylin and Eosin (H&E) or Masson's trichrome staining following standard procedures to evaluate the lesion size and collagen content, respectively.
# Orcein and Martius Scarlet Blue (OMSB) staining: OMSB was used for qualitative and quantitative analysis of atherosclerotic plaques as previously described. Briefly, left carotid arteries were dissected out, fixed in 4% buffered paraformaldehyde (pH=7.4) for at least 48 hr, and then routinely processed and embedded in paraffin (tissue processor TP1020; Leica, Wetzlar, Germany). Cross sections were cut every 5 m along the artery (starting from the proximal end) and mounted serially on silanized slides. Sections were stained and mounted automatically using Leica ST5010 Autostainer XL combined with Leica CV5030 Glass Coverslip. Deparaffinized sections through xylene and ethanol, and rehydrate to water. Postfix sections in Bouin's fixative at 56° C. for 1 hour, then rinse for 10 min in tap water to remove traces of picric acid. Stain with orcein for 20 min at 56° C. Differentiate in acidic alcohol for 2 min and then transfer to 96% ethanol for 30 s. Stain with martius yellow for 3 min and rinse in distilled water (2×2 min). Stain with crystal scarlet for 10 min. Differentiate with phosphotungstic acid 2 min and transfer to distilled water (for about 10 s). Stain with methyl blue 5 min. Rinse in acetic acid water 3 min, dehydrate through ethanol and carbol-xylene, clear in xylene, and mount in DPX or other resin. Staining of collagen with picrosirius red. The sections were examined and digital images of stained arteries were recorded using Olympus dotSlide system (Olympus, Tokyo, Japan). Segmentation algorithm allowed to distinguish vessel wall area, lumen area, plaque area, and area of the plaque occupied by collagen. The results were presented as areas of identified components in μm2. […]
# [4] = system: CD36-/-/SR-A-/- BMDM overexpressing HRasG12V; experiment: Ras (HRasG12V)-induced ox-/ac-LDL internalization, Nile Red FACS; format: cell-based, mouse; conditions: EIPA 25 μM, 1 hr; 50 μg/mL ox-LDL or ac-LDL, 24 hr
# Description: (§1) Foam cell formation: THP-1 macrophages or bone marrow-derived macrophages were treated with vehicle, known macropinocytosis stimulators (PMA 1 μM, M-CSF 100 ng/mL or PDGF 200 ng/mL)+/− macropinocytosis inhibitors (imipramine 10 μM or EIPA 25 μM; 1 hour pre-incubation) in the presence of nLDL, ox-LDL, or ac-LDL ([…]) for 24 hours. Cells were fixed in 2% PFA and stained with Nile Red (50 ng/mL) for 7 min. Fluorescence intensity was measured using the FL3 channel for Nile Red (Ex: 488 nm, Em: 670 nm).
# HRasG12V mutant adenovirus (AD-HRasG12V) and control adenovirus (AD-GFP) were obtained from Dr. Brian Stansfield. Adenovirus multiplicity of infection (MOI) was calculated according to the OD260 of the adenovirus. Macrophages grown at 60-70% confluence were incubated in 500 μl basal medium containing Ad-GFP or Ad-HRasG12V adenovirus at 200 MOI (multiplicity of infection). After 4 hours, media was replaced with fresh complete tissue culture medium for a continuous culture. Cells were treated as indicated within 48 hours after viral transfection and collected for flow cytometry. Overexpression of adenovirus was confirmed by measuring GFP fluorescence. Fluorescence intensity was measured using the FL1 channel GFP (Ex: 488 nm, Em: 530 nm).
# THP-1 macrophages = experiment: Foam cell formation / nLDL macropinocytosis, Nile Red FACS; format: cell-based, human; conditions: EIPA 25 μM, 1 hr pre-incubation; nLDL 50 μg/ml
# Description: Flow cytometry experiments were performed using the BD Accuri C6 flow cytometer using a standard protocol.
# as §1
# [5] = EIPA vs vehicle, WT and CD36-/-/SR-A-/- mice
# [6] = EIPA vs vehicle, WT and CD36-/-/SR-A-/- mice, LCA
structure (smiles),measurement,setting,value
"CCN(c1nc(N)c(C(=O)N=C(N)N)nc1Cl)C(C)C [EIPA, 5-(N-ethyl-N-isopropyl)amiloride]",clathrin-mediated transferrin endocytosis,RAW 264.7 macrophages [1],without inhibiting; also recorded: does not inhibit
same,Cytotoxicity (LIVE/DEAD Fixable Cell Stain),RAW 264.7 macrophages [2],no cell death
same,blood pressure (systolic),[3]; [5],not different
same,body weight,[3]; [5],not different
same,CD68+ macrophage staining,[3]; [6],significantly decreased
same,Collagen content (Masson's trichrome),[3]; [6],significantly decreased
same,atherosclerotic lesion area (H&E),[3]; [6],significantly decreased
same,"atherosclerosis (plaque area, OMSB, LCA)","[3]; female WT mice, PCSK9-AAV (LDLR-deficient), Western diet 4 weeks, EIPA via subcutaneously implanted minipump",inhibited atherosclerosis; also recorded: attenuates
same,"inhibition of atherosclerotic lesion area (ORO positive area, LCA)","[3]; male CD36-/-/SR-A-/- mice, Western diet 4 weeks",~80%
same,"inhibition of atherosclerotic lesion area (ORO positive area, LCA)","[3]; male WT mice, Western diet 4 weeks",~80%
same,atherosclerosis development,[3]; wild-type and SR knockout mice,reduces
same,ox- and ac-LDL internalization (Nile Red fluorescence),[4],inhibits
same,PMA-induced nLDL macropinocytosis,THP-1 macrophages,blocks macrophage macropinocytosis; also recorded: inhibits
